Measurements from patent US7354734B2, “Fungal proteins and nucleic acids encoding same” (priority 2003, dated 2008).
Values joined by “and” are separate entries in the source; they are usually repeats but may differ in a detail not shown here. Identical values can stand only once. Like-named read-outs stand apart in the source and are kept apart here. Where a SMILES comes first, the peptide text is derived from it. [ ]: non-standard residue; d: D form. The star is where a group is joined. Sta = CC(C)C[C@H](N)[C@@H](O)CC(=O)O; Isovaleryl = CC(C)CC(=O)*

Experiments:
ruLAP2 = ruLAP2 (Trichophyton rubrum, UniProt Q5QHG6); assay type: biochemical; conditions: for effect of inhibitor on ruLAP2 activity: Leu-AMC 5 mM; for ruLAP2 activity as percentage of control reaction without any cation / ruLAP2 activity as percentage of control reaction without inhibitor: Leu-MCA substrate, 15 min pre-incubation
ruLAP1 = ruLAP1 (Trichophyton rubrum, UniProt Q5QHG5); assay type: biochemical; conditions: for effect of inhibitor on ruLAP1 activity: Leu-AMC 5 mM
fuLAP1 = fuLAP1 (Aspergillus fumigatus, UniProt Q5VJG6); assay: biochemical; assay type: biochemical; conditions: for effect of divalent cation on fuLAP1 activity: Leu-AMC, cations 0.5 mM and 1 mM; for fuLAP1 activity as percentage of control reaction without any cation / fuLAP1 activity as percentage of control reaction without inhibitor / remaining activity at 100 µM: Leu-MCA substrate, 15 min pre-incubation
fuLAP2 = assay type: biochemical, Aspergillus fumigatus; conditions: for effect of divalent cation on fuLAP2 activity: Leu-AMC, cations 0.5 mM and 1 mM; for effect of inhibitor on fuLAP2 activity: Leu-AMC 5 mM
[1] = target: T1, pkLAP (microsomal LAP from porcine kidney) (Sus scrofa, UniProt P15145); assay: Effect of inhibitors and metallic cations on LAP activity (Leu-AMC); assay type: biochemical; conditions: for pkLAP activity as percentage of control reaction without any cation / pkLAP activity as percentage of control reaction without inhibitor / remaining activity at 100 µM: Leu-MCA substrate, 15 min pre-incubation; for effect of divalent cation on pkLAP activity: Leu-AMC, cations 0.5 mM and 1 mM; for effect of inhibitor on pkLAP activity: Leu-AMC 5 mM
T1 construct: purchased Sigma; host or cells: porcine kidney
T1 sequence (P15145 1-963): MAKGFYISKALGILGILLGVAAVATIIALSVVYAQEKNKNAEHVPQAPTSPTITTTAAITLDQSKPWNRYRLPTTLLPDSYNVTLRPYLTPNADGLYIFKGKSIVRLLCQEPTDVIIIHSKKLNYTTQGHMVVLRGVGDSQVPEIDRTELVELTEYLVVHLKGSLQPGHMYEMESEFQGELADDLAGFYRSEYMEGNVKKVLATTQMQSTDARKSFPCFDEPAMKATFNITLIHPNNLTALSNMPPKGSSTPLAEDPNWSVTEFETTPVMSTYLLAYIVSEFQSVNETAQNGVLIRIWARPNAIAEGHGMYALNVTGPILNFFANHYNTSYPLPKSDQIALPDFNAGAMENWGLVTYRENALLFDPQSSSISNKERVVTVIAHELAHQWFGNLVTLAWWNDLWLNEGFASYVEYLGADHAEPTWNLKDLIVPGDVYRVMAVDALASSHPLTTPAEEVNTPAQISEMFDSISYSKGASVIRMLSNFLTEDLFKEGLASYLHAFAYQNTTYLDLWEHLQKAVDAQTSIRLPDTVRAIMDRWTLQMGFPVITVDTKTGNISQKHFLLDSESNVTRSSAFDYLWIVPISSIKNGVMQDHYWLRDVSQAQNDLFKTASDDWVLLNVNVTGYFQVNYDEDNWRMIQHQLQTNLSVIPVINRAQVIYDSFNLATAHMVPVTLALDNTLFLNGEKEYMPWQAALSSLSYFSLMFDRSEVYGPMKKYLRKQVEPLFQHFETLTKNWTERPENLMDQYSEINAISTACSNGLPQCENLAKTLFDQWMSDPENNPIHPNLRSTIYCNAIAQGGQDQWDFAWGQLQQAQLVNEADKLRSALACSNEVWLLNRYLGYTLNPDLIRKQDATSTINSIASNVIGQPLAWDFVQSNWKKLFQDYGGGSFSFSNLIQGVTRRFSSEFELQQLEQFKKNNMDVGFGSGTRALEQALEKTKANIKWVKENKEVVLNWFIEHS

[2] = cation salt 0.5 mM, Leu-MCA substrate, 15 min pre-incubation
[3] = cation salt 1 mM, Leu-MCA substrate, 15 min pre-incubation
[4] = inhibitor 100 μM, Leu-MCA substrate, 15 min pre-incubation
[5] = read-out: fuLAP1 activity as percentage of control reaction without inhibitor
[6] = read-out: pkLAP activity as percentage of control reaction without inhibitor
[7] = inhibitor 100 μM, read-out: fuLAP1 activity as percentage of control reaction without inhibitor
[8] = inhibitor 100 μM, read-out: pkLAP activity as percentage of control reaction without inhibitor
[9] = inhibitor 20 μM, Leu-MCA substrate, 15 min pre-incubation

Sequence of ruLAP1 (Q5QHG5 21-373): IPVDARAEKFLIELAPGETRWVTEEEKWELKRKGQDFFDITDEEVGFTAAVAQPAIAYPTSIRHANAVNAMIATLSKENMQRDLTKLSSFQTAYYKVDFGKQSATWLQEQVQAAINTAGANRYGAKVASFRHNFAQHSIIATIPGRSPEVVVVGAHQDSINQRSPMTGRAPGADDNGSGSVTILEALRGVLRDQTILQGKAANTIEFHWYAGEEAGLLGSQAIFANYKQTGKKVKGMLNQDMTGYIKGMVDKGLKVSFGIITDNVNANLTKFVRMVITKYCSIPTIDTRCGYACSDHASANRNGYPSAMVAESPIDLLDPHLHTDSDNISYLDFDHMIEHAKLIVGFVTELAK
Sequence of ruLAP2 (Q5QHG6 20-495): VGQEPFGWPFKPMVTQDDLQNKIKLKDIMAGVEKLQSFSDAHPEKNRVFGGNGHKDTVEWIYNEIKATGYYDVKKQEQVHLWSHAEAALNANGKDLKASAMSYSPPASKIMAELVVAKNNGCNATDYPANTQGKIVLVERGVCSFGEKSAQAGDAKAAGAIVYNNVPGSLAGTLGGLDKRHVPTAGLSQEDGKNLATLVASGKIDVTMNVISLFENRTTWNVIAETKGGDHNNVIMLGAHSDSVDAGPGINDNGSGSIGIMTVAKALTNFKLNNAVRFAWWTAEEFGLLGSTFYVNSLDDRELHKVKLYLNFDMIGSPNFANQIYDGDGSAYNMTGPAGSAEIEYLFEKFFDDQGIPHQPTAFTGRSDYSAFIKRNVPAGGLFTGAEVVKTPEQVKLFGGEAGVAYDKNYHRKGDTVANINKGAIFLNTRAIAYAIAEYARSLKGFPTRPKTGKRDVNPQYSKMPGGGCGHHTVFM
Sequence of fuLAP1 (Q5VJG6 16-388): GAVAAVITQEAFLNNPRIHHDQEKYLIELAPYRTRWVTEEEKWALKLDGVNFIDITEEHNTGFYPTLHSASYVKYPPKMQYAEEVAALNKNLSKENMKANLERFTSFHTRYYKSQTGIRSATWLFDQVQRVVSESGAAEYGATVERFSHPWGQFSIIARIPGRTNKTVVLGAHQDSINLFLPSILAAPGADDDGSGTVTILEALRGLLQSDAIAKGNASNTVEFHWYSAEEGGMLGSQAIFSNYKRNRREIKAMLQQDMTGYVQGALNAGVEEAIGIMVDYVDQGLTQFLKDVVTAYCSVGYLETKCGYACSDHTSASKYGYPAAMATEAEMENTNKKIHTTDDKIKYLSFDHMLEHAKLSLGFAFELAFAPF

Row | SMILES | effect of inhibitor on ruLAP2 activity (ruLAP2) | ruLAP1 activity as percentage of control reaction without any cation (ruLAP1) | ruLAP2 activity as percentage of control reaction without any cation (ruLAP2; cation salt 0.5 mM) | ruLAP2 activity as percentage of control reaction without any cation (ruLAP2; cation salt 1 mM) | fuLAP1 activity as percentage of control reaction without any cation (fuLAP1; cation salt 0.5 mM) | fuLAP1 activity as percentage of control reaction without any cation (fuLAP1; cation salt 1 mM) | fuLAP2 activity as percentage of control reaction without any cation (fuLAP2; [2]) | fuLAP2 activity as percentage of control reaction without any cation (fuLAP2; [3]) | pkLAP activity as percentage of control reaction without any cation ([1]; cation salt 0.5 mM) | pkLAP activity as percentage of control reaction without any cation ([1]; cation salt 1 mM) | effect of inhibitor on ruLAP1 activity (ruLAP1) | other results
1 | CC(C)C[C@H](NC(=O)[C@H]1O[C@@H]1C(=O)O)C(=O)NCCCCN=C(N)N (relative stereo) [E64, L-trans-epoxysuccinyl-leu-4-guanidinobutylamide] | blunted the activity | – | – | – | – | – | – | – | – | – | – | –
2 | [Ca+2].[Cl-].[Cl-] [Ca^++, CaCl2] | – | 151.7% and 175.6% | 126.6% | 141.9% | 54.9% | 43.3% | 110.0% | 165.4% | 177.4% | 161.8% | – | effect of divalent cation on fuLAP1 activity (fuLAP1): inhibited; effect of divalent cation on fuLAP2 activity (fuLAP2): activated
3 | [Cl-].[Cl-].[Co+2] [Co^++, CoCl2] | – | 210.2% and 202.1% | 591.2% | 789.7% | 104.3% | 96.5% | 378.0% | 662.7% | 876.1% | 899.8% | – | effect of divalent cation on ruLAP2 activity (ruLAP2; Leu-AMC, cations 0.5 mM and 1 mM): highly activated; effect of divalent cation on fuLAP2 activity (fuLAP2): highly activated
4 | [Cl][Cu][Cl] [Cu^++, CuCl2] | – | – | 50.9% | 34.7% | 25.8% | 17.0% | 68.9% | 73.6% | 1422.0% | 1092.4% | – | effect of divalent cation on pkLAP activity [1]: highly activated
5 | CC(C)C[C@H](NC(=O)[C@H]1O[C@@H]1C(=O)O)C(=O)NCCCCN=C(N)N [E 64] | – | – | – | – | – | – | – | – | – | – | – | ruLAP1 activity as percentage of control reaction without inhibitor (ruLAP1; 100 µM): 103%; ruLAP2 activity as percentage of control reaction without inhibitor (ruLAP2; inhibitor 100 μM): 34%; fuLAP1 activity as percentage of control reaction without inhibitor (fuLAP1; inhibitor 100 μM): 190%; fuLAP2 activity as percentage of control reaction without inhibitor (fuLAP2; [4]): 71%; pkLAP activity as percentage of control reaction without inhibitor ([1]; inhibitor 100 μM): 93%
6 | O=C(O)CN(CCN(CC(=O)O)CC(=O)O)CC(=O)O [EDTA] | more sensitive | – | – | – | – | – | – | – | – | – | more sensitive | effect of inhibitor on fuLAP1 activity (fuLAP1): more sensitive; remaining activity at 1000 µM (fuLAP1; [5]): 19%; remaining activity at 5000 µM (fuLAP1; [5]): 16%; fuLAP2 activity as percentage of control reaction without inhibitor (fuLAP2): 50% and 77%; remaining activity at 1000 µM [1, 6]: 68%; remaining activity at 5000 µM [1, 6]: 99%
7 | CC(=O)N[C@@H](CC(C)C)C(=O)N[C@@H](CC(C)C)C(=O)N[C@H](C=O)CCCNC(=N)N [Leupeptin, leupeptin] | no clear inhibitory effects | – | – | – | – | – | – | – | – | – | no clear inhibitory effects | effect of inhibitor on fuLAP1 activity (fuLAP1; Leu-AMC 5 mM): no clear inhibitory effects; remaining activity at 100 µM (fuLAP1; [7]): 149%; effect of inhibitor on fuLAP2 activity (fuLAP2): no clear inhibitory effects; fuLAP2 activity as percentage of control reaction without inhibitor (fuLAP2; [4]): 61%; effect of inhibitor on pkLAP activity [1]: no clear inhibitory effects; remaining activity at 100 µM [1, 8]: 86%
8 | [Cl-].[Cl-].[Mg+2] [MgCl2] | – | 129.9% and 132.6% | 121.2% | 110.2% | 68.5% | 72.6% | 97.6% | 108.0% | 130.1% | 146.1% | – | –
9 | [Cl][Mn][Cl] [Mn^++, MnCl2] | – | 120.7% and 105.2% | 77.5% | 86.8% | 25.9% | 28.4% | 84.3% | 140.2% | 157.6% | 165.8% | – | effect of divalent cation on fuLAP1 activity (fuLAP1): inhibited; effect of divalent cation on fuLAP2 activity (fuLAP2): activated
10 | [Cl][Ni][Cl] [Ni, NiCl2] | – | 74.8% and 58.1% | 130.5% | 147.9% | 51.7% | 37.2% | 98.4% | 149.3% | 1187.7% | 1158.7% | – | effect of divalent cation on pkLAP activity [1]: highly activated
11 | Cc1ccc(S(=O)(=O)N[C@@H](CCCCN)C(=O)CCl)cc1 [TLCK] | no clear inhibitory effects | – | – | – | – | – | – | – | – | – | no clear inhibitory effects | ruLAP1 activity as percentage of control reaction without inhibitor (ruLAP1; [9]): 68%; ruLAP2 activity as percentage of control reaction without inhibitor (ruLAP2; inhibitor 20 μM): 96%; effect of inhibitor on fuLAP1 activity (fuLAP1; Leu-AMC 5 mM): no clear inhibitory effects; fuLAP1 activity as percentage of control reaction without inhibitor (fuLAP1; inhibitor 20 μM): 80%; effect of inhibitor on fuLAP2 activity (fuLAP2): no clear inhibitory effects; fuLAP2 activity as percentage of control reaction without inhibitor (fuLAP2; [9]): 120%; effect of inhibitor on pkLAP activity [1]: no clear inhibitory effects; pkLAP activity as percentage of control reaction without inhibitor ([1]; inhibitor 20 μM): 113%
12 | Cc1ccc(S(=O)(=O)N[C@@H](Cc2ccccc2)C(=O)CCl)cc1 [TPCK] | no clear inhibitory effects | – | – | – | – | – | – | – | – | – | no clear inhibitory effects | ruLAP1 activity as percentage of control reaction without inhibitor (ruLAP1; [9]): 68%; ruLAP2 activity as percentage of control reaction without inhibitor (ruLAP2; inhibitor 20 μM): 79%; effect of inhibitor on fuLAP1 activity (fuLAP1; Leu-AMC 5 mM): no clear inhibitory effects; fuLAP1 activity as percentage of control reaction without inhibitor (fuLAP1; inhibitor 20 μM): 95%; effect of inhibitor on fuLAP2 activity (fuLAP2): no clear inhibitory effects; fuLAP2 activity as percentage of control reaction without inhibitor (fuLAP2; [9]): 87%; effect of inhibitor on pkLAP activity [1]: no clear inhibitory effects; pkLAP activity as percentage of control reaction without inhibitor ([1]; inhibitor 20 μM): 108%
13 | [Cl-].[Cl-].[Zn+2] [Zn, ZnCl2] | – | 43.0% and 68.9% | 77.9% | 88.9% | 60.7% | 53.2% | 51.4% | 119.5% | 437.6% | 297.9% | – | effect of divalent cation on pkLAP activity [1]: highly activated
14 | CC(C)CC(=O)N[C@H](C(=O)N[C@H](C(=O)N[C@@H](CC(C)C)[C@@H](O)CC(=O)N[C@@H](C)C(=O)N[C@@H](CC(C)C)[C@@H](O)CC(=O)O)C(C)C)C(C)C [pepstatin, pepstatin A] (Isovaleryl-VV[Sta]A[Sta]-OH) | – | – | – | – | – | – | – | – | – | – | some sensitivity | effect of inhibitor on fuLAP1 activity (fuLAP1; Leu-AMC 5 mM): some sensitivity; remaining activity at 100 µM (fuLAP1; [7]): 14%; fuLAP2 activity as percentage of control reaction without inhibitor (fuLAP2; [4]): 73%; remaining activity at 100 µM [1, 8]: 64%
